Assay results as given in patent US20240032530A1, “BLOOD SAMPLER CONTAINING ANTI-PLATELET AGENT AND WATER-SOLUBLE MATRIX MATERIAL” (Radiometer Medical ApS, priority 2020, published 2024).

Tested on: platelets (PLT) in whole blood
Assay: Whole blood stability: PLT concentration on Sysmex XN-9000 hematology analyzer
Type: cell-based, healthy volunteers
Settings: FIG. 8; formulated with PVP (Mw 10′000)/Tris matrix, 1 μM in whole blood, with Hep brick or LiHep tube, analyzed within 6 hours, three donors
Method: For storage stability and whole blood stabilization testing, the tubes were sprayed with 10 μL each of the mixture (D) using an ExactaCoat from Sono-Tek for ultrasonic spraying. And tubes were evacuated after spraying in order to allow filling of 3 mL whole blood during blood drawing via venipuncture.
Tubes with sprayed anti-platelet agents Iloprost, Beraprost sodium and Treprostinil each formulated with a PVP (Mw 10′000)/Tris matrix were prepared by ultrasonic spraying as described above. Spraying was done into either 1) tubes with no additive and after spraying, a heparinized filter paper brick (Hep brick) was added to the tube; or 2) spraying was conducted into commercial Lithium Heparin tubes (LiHep). The formulations were prepared to achieve a final anti-platelet agent concentration of 1 μM in whole blood. After preparation, tubes were evacuated and lids closed in order to allow drawing of correct whole blood volume during venipuncture. Blood from three different healthy volunteers were drawn into prepared blood collection tubes and reference standard EDTA and Lithium Heparin (LiHep) tubes. Whole blood samples were analyzed with a Sysmex XN-9000 hematology analyzer within 6 hours after blood sample drawing.
The Y-axis is the normalized PLT concentration relative to the EDTA sample.

| Structure (SMILES) | anti-platelet activity (normalized PLT concentration relative to the EDTA sample) |
| --- | --- |
| CC#CCC(C)[C@H](O)/C=C/[C@@H]1[C@H]2c3cccc(CCCC(=O)O)c3O[C@H]2C[C@H]1O (mixture of isomers) [Beraprost, Beraprost sodium] | as high as that of EDTA |
| CC#CCC(C)[C@H](O)/C=C/[C@@H]1[C@H]2C/C(=C/CCCC(=O)O)C[C@H]2C[C@H]1O (stereo partly drawn) [Iloprost, iloprost] | as high as that of EDTA |
| CCCCC[C@H](O)CC[C@@H]1[C@H]2Cc3cccc(OCC(=O)O)c3C[C@H]2C[C@H]1O [Treprostinil] | as high as that of EDTA |
